Laboratory results published in patent publication US8883782B2, “Spiro-tetracyclic ring compounds as beta-secretase modulators and methods of use” (Amgen Inc., priority 2010, dated 2014).
Where two headings read alike, the source gives them in different places.

What was measured:
[1] = biological target: Beta Secretase enzyme (BACE) (Homo sapiens, UniProt P56817); assay: In vitro enzymatic BACE FRET (fluorescence resonance energy transfer) assay; assay type: biochemical; conditions: average IC50, enzyme assay; read-out: BACE 1 FRET assay
Sequence of Beta Secretase enzyme (BACE) (P56817 46-501, species assumed): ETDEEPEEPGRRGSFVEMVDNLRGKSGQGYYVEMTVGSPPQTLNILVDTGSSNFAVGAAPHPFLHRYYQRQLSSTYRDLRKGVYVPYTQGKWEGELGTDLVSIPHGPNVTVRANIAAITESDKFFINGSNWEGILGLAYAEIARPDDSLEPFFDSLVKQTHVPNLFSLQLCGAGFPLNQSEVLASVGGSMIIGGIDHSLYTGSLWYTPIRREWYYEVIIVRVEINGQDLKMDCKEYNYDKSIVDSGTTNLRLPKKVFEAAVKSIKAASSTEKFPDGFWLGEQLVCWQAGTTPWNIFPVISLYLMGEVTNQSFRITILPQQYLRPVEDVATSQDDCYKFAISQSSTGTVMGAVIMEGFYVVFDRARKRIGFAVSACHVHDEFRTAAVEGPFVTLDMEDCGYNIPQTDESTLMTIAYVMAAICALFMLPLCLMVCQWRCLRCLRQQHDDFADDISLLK
Summary of the method: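 Cleavage of a 50 nM fluorophore/quencher peptide FRET substrate by BACE for 1 h in 0.05 M acetate pH 4.2, 10% DMSO, 100 uM genapol. Reaction stopped with Tris to neutral pH before fluorescence reading.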

[2] = system: Aβ40 in conditioned medium of cells stably expressing Amyloid Precursor Protein (APP); assay: In vitro BACE cell-based assay (Aβ40 in conditioned medium, sandwich ELISA); conditions: read-out: HEK cell assay
Summary of the method: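 Secreted Aβ40 is captured with pAb40 and detected with biotinylated 6E10, read by europium time-resolved fluorescence. IC50 comes from percent inhibition versus concentration.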

[3] = system: Abeta 40 in cerebrospinal fluid (CSF) and brain; assay: In vivo inhibition of beta-secretase (Abeta 40 reduction in CSF and brain); conditions: rat, after 4 hrs; for inhibition in vivo at 10 mg/kg: Abeta 40, 10 mg/kg (10 mpk); for inhibition in vivo at 3 mg/kg: Abeta 40, 3 mpk
Text: In Vivo Inhibition of Beta-Secretase
Several animal models, including mouse, rat, dog, and monkey, may be used to screen for inhibition of beta-secretase activity in vivo following administration of a test compound sample. Animals used in this invention can be wild type, transgenic, or gene knockout animals. […] A separate group of animals receive 2% hydroxypropyl methylcellulose, 1% Tween80 alone, containing no test compound, and serve as a vehicle-control group. At the end of the test period, animals are sacrificed and brain tissues, plasma or cerebrospinal fluid are collected. […] Homogenates are centrifuged at 355,000 g, 4° C. for 30 minutes. CSF or brain supernatants are then analyzed for the presence of A-beta peptide by specific sandwich ELISA assays based on ECL (Electrochemiluminescence) technology. For example, rat Abeta40 is measured using biotinylated-4G8 (Signet) as a capture antibody and Fab40 (an in-house antibody specific to the C-terminal of Abeta40) as a detection antibody.
Actual vehicles used: Oral: 2% HPMC, 1% Tween80, pH 2.2

[4] = Homo sapiens, HEK293, average IC50
[5] = CSF, read-out: CSF A-beta reduction % at 10 mg/kg
[6] = brain, read-out: Brain A-beta reduction % at 10 mg/kg
[7] = Homo sapiens, HEK293, average IC50, HEK cells
[8] = CSF, read-out: CSF A-beta reduction % at 3 mpk
[9] = brain, read-out: Brain A-beta reduction % at 3 mpk

Structure (SMILES) | IC50 [1] [nM] | IC50 [2, 4] [nM] | IC50 [2, 7] [nM] | IC50 ([2]; average IC50, HEK cells) [nM] | inhibition in vivo at 10 mg/kg [3, 5] [%] | inhibition in vivo at 10 mg/kg [3, 6] [%] | inhibition in vivo at 3 mg/kg [3, 8] [%] | inhibition in vivo at 3 mg/kg [3, 9] [%]
Cc1ccnc(F)c1-c1ccc2c(c1)[C@@]1(COC(N)=N1)c1cc(C3=CCOCC3)ncc1O2 [Example 236, (S)-3-(3,6-dihydro-2H-pyran-4-yl)-7-(2-fluoro-4-methylpyridin-3-yl)-5′H-spiro[chromeno[2,3-c]pyridine-5,4′-oxazol]-2′-amine] | 0.9 | 6 |  |  | 58 | 34 |  | 
Cn1cc(-c2cc(F)c3c(c2)[C@]2(COC(N)=N2)c2cc(-c4ccc(F)nc4)ccc2O3)cn1 [Example 262, (S)-4′-fluoro-7′-(6-fluoropyridin-3-yl)-2′-(1-methyl-1H-pyrazol-4-yl)-5H-spiro[oxazole-4,9′-xanthen]-2-amine] | 3.3 | 12.6 |  |  | 36 | 11 |  | 
CC1(C)C=C(c2cc3c(cn2)Oc2ccc(-c4ccc(F)nc4)cc2[C@@]32COC(N)=N2)CCO1 [Example 369, (S)-3-(6,6-dimethyl-3,6-dihydro-2H-pyran-4-yl)-7-(6-fluoropyridin-3-yl)-5′H-spiro[chromeno[2,3-c]pyridine-5,4′-oxazol]-2′-amine] | 2.8 | 16.2 |  |  | 46 | 31 |  | 
NC1=N[C@@]2(CO1)c1cc(-c3cccnc3)ccc1Oc1cnc(N3CCC(F)(F)CC3)cc12 [Example 402, (5S)-3-(4,4-difluoro-1-piperidinyl)-7-(3-pyridinyl)spiro[chromeno[2,3-c]pyridine-5,4′-[1,3]oxazol]-2′-amine] | 2.4 |  | 13.1 |  | 52 | 28 |  | 
NC1=N[C@@]2(CO1)c1cc(-c3cncc(F)c3)ccc1Oc1cnc(N3CCC(F)(F)CC3)cc12 [Example 414, (5S)-3-(4,4-difluoro-1-piperidinyl)-7-(5-fluoro-3-pyridinyl)spiro[chromeno[2,3-c]pyridine-5,4′-[1,3]oxazol]-2′-amine] | 1.5 |  | 13.6 |  | 64 | 44 |  | 
Cc1ccc(-c2cc(F)c3c(c2)[C@]2(COC(N)=N2)c2cc(OCC(C)(C)C#N)ccc2O3)cn1 [Example 443, (S)-3-(2-amino-4′-fluoro-2′-(6-methylpyridin-3-yl)-5H-spiro[oxazole-4,9′-xanthene]-7′-yloxy)-2,2-dimethylpropanenitrile] | 5 |  | 11.6 |  | 35 | 7 |  | 
NC1=N[C@@]2(CO1)c1cc(-c3cnccn3)ccc1Oc1c(F)cc(C3=CCOCC3)cc12 [Example 452, (S)-2′-(3,6-dihydro-2H-pyran-4-yl)-4′-fluoro-7′-(pyrazin-2-yl)-5H-spiro[oxazole-4,9′-xanthen]-2-amine] | 2 |  | 11.5 |  | 56 | 35 |  | 
CC1(C)C=C(c2ccc3c(c2)[C@]2(COC(N)=N2)c2cc(-c4cncnc4)c(F)cc2O3)CCO1 [Example 508, (R)-7′-(6,6-dimethyl-3,6-dihydro-2H-pyran-4-yl)-3′-fluoro-2′-(pyrimidin-5-yl)-5H-spiro[oxazole-4,9′-xanthen]-2-amine] | 3.7 |  | 14.4 |  | 49 | 25 |  | 
CC(C)(F)COc1cc(F)c2c(c1)[C@]1(COC(N)=N1)c1cc(-c3cncnc3)c(F)cc1O2 [Example 668, (4S)-3′,5′-difluoro-7′-(2-fluoro-2-methylpropoxy)-2′-(5-pyrimidinyl)spiro[1,3-oxazole-4,9′-xanthen]-2-amine] | 0.8 |  | 11 |  |  |  | 55 | 46
CC(F)(F)COc1cc(F)c2c(c1)[C@]1(CSC(N)=N1)c1cc(-c3cccnc3F)ccc1O2 [Example 724, (4S)-2′-(2,2-difluoropropoxy)-4′-fluoro-7′-(2-fluoro-3-pyridinyl)spiro[1,3-thiazole-4,9′-xanthen]-2-amine] | 1 | 22 |  |  | 42 | 27 |  | 
COc1nc(-c2ccnc(F)c2)cc2c1Oc1ccc(-c3cccnc3)cc1[C@@]21COC(N)=N1 [Example 839, (S)-3-(2-fluoropyridin-4-yl)-1-methoxy-7-(pyridin-3-yl)-5′H-spiro[chromeno[2,3-c]pyridine-5,4′-oxazol]-2′-amine] | 2.1 | 11 |  |  | 37 | 23 |  | 

More lines, main results first:

IC50 [1] [nM] | IC50 [2, 4] [nM] | IC50 [2, 7] [nM] | IC50 ([2]; average IC50, HEK cells) [nM] | Structure (SMILES) | inhibition in vivo at 10 mg/kg [3, 5] [%] | inhibition in vivo at 10 mg/kg [3, 6] [%] | inhibition in vivo at 3 mg/kg [3, 8] [%] | inhibition in vivo at 3 mg/kg [3, 9] [%]
0.8 |  | 14.3 |  | CC1(C#Cc2cnc3c(c2)[C@]2(COC(N)=N2)c2cc(-c4cccc(Cl)c4F)ccc2O3)COC1 [Example 463, (S)-7-(3-chloro-2-fluorophenyl)-3-((3-methyloxetan-3-yl)ethynyl)-5′H-spiro[chromeno[2,3-b]pyridine-5,4′-oxazol]-2′-amine] | 30 | 9 |  | 
0.7 |  | 10 |  | NC1=N[C@@]2(CS1)c1cc(-c3cccnc3F)ccc1Oc1ncc(C3=CCCOC3)cc12 [Example 672, (5S)-3-(5,6-dihydro-2H-pyran-3-yl)-7-(2-fluoro-3-pyridinyl)spiro[chromeno[2,3-b]pyridine-5,4′-[1,3]thiazol]-2′-amine] | 64 | 47 |  | 
0.6 |  | 6 |  | NC1=N[C@@]2(CO1)c1cc(-c3c(F)ccnc3F)ccc1Oc1cnc(C3=CCCOC3)cc12 [Example 676, (5S)-7-(2,4-difluoro-3-pyridinyl)-3-(5,6-dihydro-2H-pyran-3-yl)spiro[chromeno[2,3-c]pyridine-5,4′-[1,3]oxazol]-2′-amine] |  |  | 76 | 74
0.4 | 4 |  |  | NC1=N[C@@]2(CO1)c1cc(-c3cccnc3)ccc1Oc1c2cc(C2=CCCOC2)nc1F [Example 745, (5S)-3-(5,6-dihydro-2-H-pyran-3-yl)-1-fluoro-7-(3-pyridinyl)spiro[chromeno[2,3-c]pyridine-5-4′-[1,3]oxazol]-2′-amine] | 78 | 69 |  | 
0.4 | 3 |  |  | CC#Cc1cncc(-c2ccc3c(c2)[C@@]2(COC(N)=N2)c2cc(-c4cccnc4)nc(F)c2O3)c1 [Example 759, (S)-1-fluoro-7-(5-(prop-1-ynyl)pyridin-3-yl)-3-(pyridin-3-yl)-5′H-spiro[chromeno[2,3-c]pyridine-5,4′-oxazol]-2′-amine] |  |  | 43 | 43
0.2 | 12 |  |  | NC1=N[C@@]2(CS1)c1cc(-c3cccnc3F)ccc1Oc1c(F)cc(C3=CCCOC3)cc12 [Example 802, (S)-2′-(5,6-dihydro-2H-pyran-3-yl)-4′-fluoro-7′-(2-fluoropyridin-3-yl)-5H-spiro[thiazole-4,9′-xanthen]-2-amine] | 69 | 57 |  | 
0.7 |  | 10 |  | CC(C)(C#N)COc1cc(F)c2c(c1)[C@]1(COC(N)=N1)c1cc(-c3cccnc3)c(F)cc1O2 [Example 860, (S)-3-(2-amino-3′,5′-difluoro-2′-(pyridin-3-yl)-5H-spiro[oxazole-4,9′-xanthene]-7′-yloxy)-2,2-dimethylpropanenitrile] | 0 | 2 |  | 
0.3 |  | 7 |  | NC1=N[C@@]2(CO1)c1cc(-c3cncc(F)c3)ccc1Oc1c2cc(N2CCOCC2)nc1F [Example 893, (5S)-1-fluoro-7-(5-fluoro-3-pyridinyl)-3-(4-morpholinyl)spiro[chromeno[2,3-c]pyridine-5,4′-[1,3]oxazol]-2′-amine] | 76 | 70 |  | 
0.3 |  | 10 |  | N#Cc1cccc(-c2ccc3c(c2)[C@@]2(COC(N)=N2)c2cc(N4CCOCC4)nc(F)c2O3)c1 [Example 894, 3-((5S)-2′-amino-1-fluoro-3-(4-morpholinyl)spiro[chromeno[2,3-c]pyridine-5,4′-[1,3]oxazol]-7-yl)benzonitrile] | 75 | 69 |  | 
0.5 |  |  | 11 | CC1(C#Cc2cc3c(nc2F)Oc2ccc(-c4cccnc4F)cc2[C@@]32COC(N)=N2)COC1 [Example 901, (5S)-2-fluoro-7-(2-fluoro-3-pyridinyl)-3-((3-methyl-3-oxetanyl)ethynyl)spiro[chromeno[2,3-b]pyridine-5,4′-[1,3]oxazol]-2′-amine] | 56 | 44 |  | 
